Reference: the NIST ThermoML archive (doi:10.1016/j.fluid.2014.10.016)
± gives the expanded uncertainty stated by the source.

Legend:
[1] = excess molar enthalpy (molar enthalpy of mixing); xn = mol fraction of the nth substance listed; settings: 101 kPa, Liquid, Flow calorimetry
[2] = 313.15 K; Liquid; Closed cell (Static) method

CC(C)CC(C)(C)C [2,2,4-trimethylpentane] + CCCC(C)O
[1], x2 = 0
Settings	excess molar enthalpy [kcal/mol]
298.15 K	0 ± 0.000239
313.15 K	0 ± 0.000239

CC(C)CC(C)(C)C [2,2,4-trimethylpentane]
Settings	vapor or sublimation pressure [kPa]
[2]	12.97 ± 0.031

CCCC(C)O (configuration not stated) [pentan-2-ol]
Settings	vapor or sublimation pressure [kPa]
[2]	2.295 ± 0.015

CCCCCCC [heptane]
Settings	vapor or sublimation pressure [kPa]
[2]	12.31 ± 0.03

CCCC(C)O (configuration not stated) [pentan-2-ol] + CC(C)CC(C)(C)C
excess molar enthalpy [kcal/mol], [1]
Settings	298.15 K	313.15 K
x1 = 0.0507	0.114 ± 0.00153	0.146 ± 0.00194
x1 = 0.0997	0.154 ± 0.00198	–
x1 = 0.0998	–	0.196 ± 0.00263
x1 = 0.1498	0.173 ± 0.00222	–
x1 = 0.1499	–	0.224 ± 0.00287
x1 = 0.2009	0.19 ± 0.00239	0.243 ± 0.00311
x1 = 0.2499	–	0.258 ± 0.00335
x1 = 0.25	0.202 ± 0.00263	–
x1 = 0.3022	0.213 ± 0.00263	–
x1 = 0.3023	–	0.268 ± 0.00335
x1 = 0.3502	–	0.271 ± 0.00335
x1 = 0.3503	0.22 ± 0.00287	–
x1 = 0.401	–	0.273 ± 0.00335
x1 = 0.4011	0.227 ± 0.00287	–
x1 = 0.452	–	0.272 ± 0.00335
x1 = 0.4521	0.229 ± 0.00287	–
x1 = 0.501	–	0.267 ± 0.00335
x1 = 0.5011	0.229 ± 0.00287	–
x1 = 0.552	–	0.26 ± 0.00335
x1 = 0.5521	0.22 ± 0.00287	–
x1 = 0.601	0.21 ± 0.00263	0.248 ± 0.00311
x1 = 0.6516	–	0.231 ± 0.00287
x1 = 0.6517	0.196 ± 0.00239	–
x1 = 0.7018	–	0.211 ± 0.00263
x1 = 0.7019	0.177 ± 0.00227	–
x1 = 0.7516	–	0.185 ± 0.00237
x1 = 0.7517	0.155 ± 0.00201	–
x1 = 0.8008	–	0.158 ± 0.00203
x1 = 0.8009	0.128 ± 0.00167	–
x1 = 0.851	0.0997 ± 0.00134	0.122 ± 0.0016
x1 = 0.9002	0.0677 ± 0.000956	0.0855 ± 0.00117
x1 = 0.95	0.0338 ± 0.00055	0.0441 ± 0.000669
x1 = 1	0 ± 0.000239	0 ± 0.000239

CCCCCCC [heptane] + CCCC(C)O
[1], x2 = 0
Settings	excess molar enthalpy [kcal/mol]
298.15 K	0 ± 0.000239
313.15 K	0 ± 0.000239

CCCC(C)O (configuration not stated) [pentan-2-ol] + CCCCCCC
excess molar enthalpy [kcal/mol], [1]
Settings	298.15 K	313.15 K
x1 = 0.0504	–	0.146 ± 0.00194
x1 = 0.0505	0.117 ± 0.00158	–
x1 = 0.0996	–	0.197 ± 0.00263
x1 = 0.0997	0.151 ± 0.00196	–
x1 = 0.1475	–	0.223 ± 0.00287
x1 = 0.1477	0.173 ± 0.00222	–
x1 = 0.1967	–	0.242 ± 0.00311
x1 = 0.1969	0.19 ± 0.00239	–
x1 = 0.2469	–	0.256 ± 0.00335
x1 = 0.2472	0.203 ± 0.00263	–
x1 = 0.2956	–	0.265 ± 0.00335
x1 = 0.2962	0.211 ± 0.00263	–
x1 = 0.3455	–	0.27 ± 0.00335
x1 = 0.346	0.219 ± 0.00287	–
x1 = 0.3962	–	0.273 ± 0.00335
x1 = 0.3967	0.225 ± 0.00287	–
x1 = 0.4454	–	0.273 ± 0.00335
x1 = 0.4459	0.227 ± 0.00287	–
x1 = 0.4953	–	0.27 ± 0.00335
x1 = 0.4958	0.226 ± 0.00287	–
x1 = 0.5458	–	0.263 ± 0.00335
x1 = 0.5463	0.221 ± 0.00287	–
x1 = 0.5968	–	0.251 ± 0.00311
x1 = 0.5972	0.212 ± 0.00263	–
x1 = 0.6462	–	0.237 ± 0.00311
x1 = 0.6466	0.2 ± 0.00263	–
x1 = 0.6959	–	0.214 ± 0.00263
x1 = 0.6963	0.181 ± 0.00232	–
x1 = 0.7477	–	0.19 ± 0.00239
x1 = 0.748	0.159 ± 0.00206	–
x1 = 0.7979	–	0.161 ± 0.00208
x1 = 0.7981	0.132 ± 0.00172	–
x1 = 0.8481	–	0.127 ± 0.00165
x1 = 0.8483	0.103 ± 0.00136	–
x1 = 0.8984	–	0.088 ± 0.0012
x1 = 0.8985	0.0706 ± 0.00098	–
x1 = 0.9485	–	0.0461 ± 0.000693
x1 = 0.9486	0.0359 ± 0.000574	–
x1 = 1	0 ± 0.000239	0 ± 0.000239
